Assay results from patent US20050282865A1, “Neurotrophic factor production promoter” (FUJISAWA PHARMACEUTICAL CO., LTD., priority 2002, published 2005).

What was measured:
[1] = test system: NGF; assay: NGF expression in the brain of normal mouse (EIA); assay type: in vivo; details: normal mice, 24 hr after final administration, vs control
Description: (§1) 5-week-old male ddy mice (Japan LLC, Inc.) were divided into the following three groups (9 mice per group) and subjected to a test. • Group 1 (Control) Phosphate buffered saline (PBS) was intraperitoneally administered to the mice once a day for 7 days. • Group 2 APA (0.75 mg/kg) dissolved in PBS was intraperitoneally administered to the mice once a day for 7 days. • Group 3 APA (7.5 mg/kg) dissolved in PBS was intraperitoneally administered to the mice once a day for 7 days.
(§2) In every group, the mice were decapitated at 24 hr after the final administration and the cerebral cortex and striatum thereof were removed.
(§3) The removed cerebral cortex and striatum were weighed, a homogenizing buffer (0.1M Tris-phosphate buffer (pH 7.4) containing 1M sodium hydrochloride, 2% BSA, 2 mM EDTA, 0.2% sodium azide) supplemented with aprotinin (80 TIU/L) was added in an amount of 19-fold volume of the weight, and the mixture was sonicated 30 times. […]
(§4) The concentration of neurotrophic factor in each sample was measured using EIA according to the method of Furukawa et al. (Journal of Neurochemistry), 40, 734-744 (1983)} in the case of NGF, and using EIA according to the method of Nitta et al. {pp. 463-467 of “Mapping the progress of Alzheimer's and Parkinson's Disease” (2002) edited by Mizuno et al.}, in the case of GDNF. […]

[2] = test system: GDNF; assay: GDNF expression in the cerebral cortex of mouse model of Parkinson's disease (EIA); assay type: in vivo; details: 6-OHDA mouse model
Description: (§5) The removed cerebral cortex and striatum were weighed, a homogenizing buffer (0.1M Tris-phosphate buffer (pH 7.4) containing 1M sodium hydrochloride, 2% BSA, 2 mM EDTA, 0.2% sodium azide) supplemented with aprotinin (80 TIU/L) was added in an amount of 19-fold volume of the weight, and the mixture was sonicated 30 times. After centrifugation (100,000 g×30 min) at 4° C., the supernatant was separated and the same amount of chloroform was added. The mixture was thoroughly stirred and centrifuged (20,000 g×10 min). The supernatant was separated and used as a sample for EIA (cryopreserved at −20° C. until use).
(§6) The concentration of neurotrophic factor in each sample was measured using EIA according to the method of Furukawa et al. (Journal of Neurochemistry), 40, 734-744 (1983)} in the case of NGF, and using EIA according to the method of Nitta et al. {pp. 463-467 of “Mapping the progress of Alzheimer's and Parkinson's Disease” (2002) edited by Mizuno et al.}, in the case of GDNF. The obtained values were multiplied by 20 to give a neurotrophic factor content of each brain region.
(§7) 5-week-old male ddy mice (Japan LLC, Inc.) were divided into the following four groups (9 mice per group) and subjected to a test. […]

[3] = test system: GDNF; assay: GDNF expression in the brain of normal mouse (EIA); assay type: in vivo; details: normal mice, 24 hr after final administration
Description: as §1, §2, §3, §4

[4] = Observation of normal mice after 7 consecutive days of intraperitoneal APA; assay type: in vivo, mouse; details: normal ddy mice, APA i.p. once a day for 7 days (0.75 or 7.5 mg/kg)
Description: as §1

[5] = test system: dopaminergic nerve; assay: Functional evaluation of dopaminergic nerve: methamphetamine-induced one side cycling movement in 6-OHDA mouse model of Parkinson's disease; assay type: in vivo; details: 6-OHDA striatum destruction, counted 10-20 min after methamphetamine 10 mg/kg, no-APA group 86.0±14.1
Description: 5-week-old male ddy mice (Japan LLC, Inc.) were divided into the following four groups (9 mice per group) and subjected to a test. Under pentobarbital anesthesia and without craniotomy, a needle of a microsyringe was punctured through the head skin into the striatum of the right brain, and 1 μL of 6-hydroxydopamine (6-OHDA, Sigma Co., 11.5 μg/μL) dissolved in physiological saline containing 0.05% ascorbic acid was injected. • Group 1 (Control) Physiological saline containing only ascorbic acid was injected, whereby the striatum was not damaged. […]
The mouse models of Parkinson's disease of each of the above-mentioned groups were allowed to search freely in a transparent cylindrical container (glass, diameter 9 cm-height 12 cm) for 10 min, methamphetamine (DAINIPPON Pharmaceutical Co., Ltd., 10 mg/kg) was intraperitoneally administered, and the number of cycling in 10-20 min after administration was counted. […]

[6] = test system: NGF; assay: NGF expression in the cerebral cortex of mouse model of Parkinson's disease (EIA); assay type: in vivo; details: 6-OHDA mouse model
Description: as §5, §6, §7

[7] = test system: rats with injured spinal cord; assay: Walking ability of rats with spinal injury (BBB scale); assay type: in vivo, rat; details: spinal-injured Wistar rats, APA 0.75 mg/kg i.p. once a day
Description: 7-week-old male Wistar rats (Japan SMC, Inc.) were divided into the following three groups (12-17 rats per group) and subjected to a test. Pentobarbital sodium (DAINIPPON Pharmaceutical Co., Ltd., 35 mg/kg) was intraperitoneally injected to the rats, median incision was applied to the back, and paraspinal muscle was bluntly detached. After laminectomy of the 12th thoracic vertebra, the left spinal cord was cut at the same position with a sharp cutting tool. After 5 hr from the cutting, the rats confirmed to have anesthetic disorder in the left hind paw were subjected to the following test. • Group 1 PBS was intraperitoneally administered to rats with uninjured spinal cord (sutured without cutting the spinal cord after laminectomy of the 12th thoracic vertebra). • Group 2 PBS was intraperitoneally administered to rats with injured spinal cord. • Group 3 APA (0.75 mg/kg) dissolved in PBS was intraperitoneally administered to rats with injured spinal cord.
In every group, the administration was performed once a day for 20 days from the day of spinal injury. Evaluation method of walking ability of rats with injured spinal cord: The rats were placed in a box (length 1 m×width 1 m×height 30 cm) painted in gray, allowed to search freely, and evaluated in 21 levels according to 21-Point Basso-Besttie-Bresnahan Locomotor Rating Scale (BBB scale).

[8] = APA 0.75 mg/kg i.p. once a day for 7 days
[9] = APA 7.5 mg/kg i.p. once a day for 7 days

## CC(=O)N1CCCC[C@H]1C(=O)O [APA, N-acetyl-L-pipecolic acid]
[1]; APA 0.75 and 7.5 mg/kg i.p. once a day for 7 days
  NGF expression amount in the cerebral cortex: tended to increase in a dose-dependent manner
[1]; APA 0.75 or 7.5 mg/kg i.p. once a day for 7 days
  NGF expression amount in the striatum: did not show remarkable difference from the control
[2]; [8]
  GDNF expression amount in the cerebral cortex, increase: 74.9%
[2]; [9]
  GDNF expression amount in the cerebral cortex, increase: 232.4%
[3]; [8]
  GDNF expression amount in the striatum, increase as compared to the control: 66.0%
[3]; APA 0.75 or 7.5 mg/kg i.p. once a day for 7 days, vs control
  GDNF expression amount in the cerebral cortex: no remarkable difference
[4]
  abnormal behavior, alopecia or decrease of body weight as compared to control mice: did not show abnormal behavior, alopecia or decrease of body weight
[5]; APA 0.75 mg/kg i.p. for 7 days
  one side cycling movement: 40.9±17.3 times
[5]; APA 7.5 mg/kg i.p. for 7 days
  one side cycling movement: 47.1±13.1 times
[6]; [8]
  NGF expression amount in the cerebral cortex, increase: 11.2%
[6]; [9]
  NGF expression amount in the cerebral cortex, increase: 30.7%
[7]; at day 23, injury-only group plateaued at score 15
  level of walking ability (BBB scale): recovery to almost the same level as before injury
[7]; first 2 days
  effect of APA administration on walking ability (BBB scale): not observed
[7]; from day 3
  level of walking ability (BBB scale): showed improvement from day 3
